Reference: US4940711A, “Antihypertensive N-piperazinylalkanoylanilides” (Recordati, S.A., Chemical and Pharmaceutical Company, priority 1983, dated 1990)
Where a name gives a salt, the structure may show the parent alone.

Experiments:
[1] = test system: spontaneously hypertensive rats; experiment: Antihypertensive activity (systolic blood pressure, indirect tail-cuff method) in conscious spontaneously hypertensive rats; format: in vivo; settings: Rattus norvegicus, po; os, conscious SHR, 1, 3, 5 and 7 hours after administration; from linear regression of dose-response curve; hydrochloride salt except AC 2, 4 and 9 (free bases); read-out: ED25 (drug dose producing a 25% decrease in systolic blood pressure)
Description: Antihypertensive activity was evaluated in male spontaneously hypertensive rats (SHR, Wister-Kyoto strain, 15-25 weeks old). The determination of blood pressure was performed by the indirect method (M. Gerald et al, Arzneim.-Forsch., 18, 1825, 1968). The animals were prewarmed in a heating chamber at a temperature from 35° to 37° C. for a period of 15 minutes before administering the compounds. The compounds tested by the oral route were dissolved or suspended in a 0.5% methylcellulose solution. Controls were given only the vehicle. Systolic blood pressure and heart rate were measured 1, 3, 5 and 7 hours after drug administration by means of a tail-cuff and the pulse pick-up method using a recorder.
In the Table I, the antihypertensive activity was expressed as ED25, which is the drug dose producing a 25% decrease in systolic blood pressure in conscious spontaneously hypertensive rats. The ED25 was calculated from the linear regression of the dose-response curve.
(§1) ^a all compounds were tested as the hydrochloride salt, except for AC
(§2) 2, 4 and 9 (tested as free bases)

[2] = LD50 in the mouse per os (acute toxicity); settings: in vivo, po, tested as hydrochloride salt except AC 2, 4 and 9 (free bases)
Description: The LD50 of the compounds according to the invention was determined in the mouse per os following the method described by C. S. Weil (Biometrics,8, 249, 1952).
In the following Table I, the numbers under AC (active compound) indicate the compounds described in the corresponding Examples (thus "1" indicates the compound prepared in Example 1).
as §1, §2

| SMILES | ED25 [1] [mg/kg] | LD50 [2] [mg/kg] |
| --- | --- | --- |
| COc1ccccc1N1CCN(CCC(=O)Nc2cccc(S(N)(=O)=O)c2)CC1 [Example 13, 3-Sulphamoyl-β-[4-(2-methoxyphenyl)-1-piperazinyl]-propionylanilide hydrate] | 100 | > 3000 |
| COc1cccc(NC(=O)CCN2CCN(c3ccccc3OC)CC2)c1 [Example 6d, 3-methoxy-β-[4-(2-methoxyphenyl)-1-(piperazinyl]-propionylanilide hydrochloride] | 69 | 649 |
| COc1ccccc1N1CCN(CCC(=O)Nc2ccc(C#N)cc2)CC1 [Example 6f, 4-cyano-β-[4-(2-methoxyphenyl)-1-piperazinyl]-propionylanilide] | 17.2 | 320 |
| COc1ccccc1N1CCN(CCC(=O)Nc2cccc(C(F)(F)F)c2)CC1 [Example 6b, 3-trifluoromethyl-β-[4-(2-methoxyphenyl)-1-piperazinyl]-propionylanilide hydrochloride] | 48.8 | 1600 |
| COc1ccccc1N1CCN(CCC(=O)Nc2ccc(C(N)=O)cc2)CC1 [Example 5, 4-Carbamoyl-β-[4-(2-methoxyphenyl)-1-piperazinyl]-propionylanilide] | 54.5 | > 3000 |
| COc1ccccc1N1CCN(CCC(=O)Nc2ccc(S(N)(=O)=O)cc2)CC1 [Example 4, 4-Sulphamoyl-β-[4-(2-methoxyphenyl)-1-piperazinyl]-propionylanilide] | 8.1 | > 3000 |
| COc1ccccc1N1CCN(C(C)CC(=O)Nc2ccc(S(N)(=O)=O)cc2)CC1 (stereo not drawn) [Example 10, 4-Sulphamoyl-β-[4-(2-methoxyphenyl)-1-piperazinyl]-butyrylanilide] | 8.7 | > 3000 |
| COc1ccccc1N1CCN(CCC(=O)Nc2ccc(C(C)=O)cc2)CC1 [Example 6a, 4-acetyl-β-[4-(2-methoxyphenyl)-1-piperazinyl]-propionylanilide] | 58.5 | 2200 |
| COc1ccccc1N1CCN(CCC(=O)Nc2ccc([N+](=O)[O-])cc2)CC1 [Example 7, 4-Nitro-β-[4-(2-methoxyphenyl)-1-piperazinyl]-propionylanilide] | 50.5 | 2100 |
| COc1ccccc1N1CCN(CCC(=O)Nc2ccc3c(c2)OCO3)CC1 [Example 19, 3,4-Methylenedioxy-β-[4-(2-methoxyphenyl)-1-piperazinyl]-propionylanilide] | 100 | 340 |
| COc1ccccc1N1CCN(CCC(=O)Nc2cc(OC)c(OC)c(OC)c2)CC1 [Example 20, 3,4,5-Trimethoxy-β-[4-(2-methoxyphenyl)-1-piperazinyl]-propionylanilide hydrochloride] | 60 | 730 |
| COc1ccccc1N1CCN(CC(=O)Nc2ccc(N)cc2)CC1 [Example 8a] | 70.2 | 1000 |
| COc1ccccc1N1CCN(CCC(=O)Nc2ccc(NC(C)=O)cc2)CC1 [Example 12, 4-Acetylamino-β-[4-(2-methoxyphenyl)-1-piperazinyl]-propionylanilide] | 100 | > 3000 |
| COc1ccccc1N1CCN(CCC(=O)Nc2ccc(S(=O)(=O)NC(C)=O)cc2)CC1 [Example 11, 4-Acetylsulphamoyl-β-[4-(2-methoxyphenyl)-1-piperazinyl]-propionylanilide] | 100 | > 3000 |
| COc1ccc(NC(=O)CCN2CCN(c3ccccc3OC)CC2)cc1 [Example 6c, 4-methoxy-β-[4-(2-methoxyphenyl)-1-piperazinyl]-propionylanilide] | 10 | > 3000 |
| COc1ccccc1N1CCN(CCC(=O)Nc2ccc(S(=O)(=O)N(C)C)cc2)CC1 [Example 21, 4-(Dimethylsulphamoyl)-β-[4-(2-methoxyphenyl)-1-piperazinyl]-propionylanilide] | 60 | > 3000 |
| COc1ccccc1N1CCN(CCC(=O)Nc2cccc(Cl)c2)CC1 [Example 14, 3-Chloro-β-[4-(2-methoxyphenyl)-1-piperazinyl]-propinylanilide] | 100 | > 3000 |
| COc1ccccc1N1CCN(CCC(=O)Nc2ccc(C(C)O)cc2)CC1 (stereo not drawn) [Example 9, 4-(1Hydroxyethyl)-β-[4-(2-methoxyphenyl)-1-piperazinyl]-propionylanilide] | 69 | 537 |
| COc1ccccc1N1CCN(CCC(=O)Nc2ccc(S(C)(=O)=O)cc2)CC1 [Example 2, 4-Methylsulphonyl-β-[4-(2-methoxyphenyl)-1-piperazinyl]-propionylanilide] | 7.5 | > 3000 |
